Data as given in the supplement of paper PMC10307832.

Assays:
Experiment in all cases: relative viability (nuclei count vs DMSO), 5 days (fraction); higher = more cells survive
[1] = compound: CN1C=C(C2=CC=CC=C21)/C=C\3/C4=C(C=CC=N4)NC3=O + Cc1cc(Nc2cc(N3CCN(C)CC3)nc(Sc3ccc(NC(=O)C4CC4)cc3)n2)n[nH]1 [Tozasertib] (partner 0.1 µM)
How it was run: (§1)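 Lung cancer cell lines in 1536-well plates were dosed by pin tool the day after seeding, either with one drug alone or with a fixed anchor-drug dose plus five library-drug doses (not always all listed) in √10 steps. After 5 days, cells were fixed and their nuclei stained in one step (final 0.05% Triton X-100, 1% formaldehyde, 1 ug/ml Hoechst), then counted on 4× images. Relative viability is the nuclei count in treated wells divided by that in vehicle wells. Values are medians of duplicate plates.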

Trametinib + Pictilisib = compound: CC(=O)Nc1cccc(-n2c(=O)n(C3CC3)c(=O)c3c(Nc4ccc(I)cc4F)n(C)c(=O)c(C)c32)c1 [Trametinib] + CS(=O)(=O)N1CCN(Cc2cc3nc(-c4cccc5[nH]ncc45)nc(N4CCOCC4)c3s2)CC1 [Pictilisib] (partner 1 µM)
How it was run: as §1

Trametinib + Olaparib = compound: CC(=O)Nc1cccc(-n2c(=O)n(C3CC3)c(=O)c3c(Nc4ccc(I)cc4F)n(C)c(=O)c(C)c32)c1 [Trametinib] + O=C(c1cc(Cc2n[nH]c(=O)c3ccccc23)ccc1F)N1CCN(C(=O)C2CC2)CC1 [Olaparib] (partner 8 µM)
How it was run: as §1

[2] = compound: CN1C=C(C2=CC=CC=C21)/C=C\3/C4=C(C=CC=N4)NC3=O + CS(=O)(=O)N1CCN(Cc2cc3nc(-c4cccc5[nH]ncc45)nc(N4CCOCC4)c3s2)CC1 [Pictilisib] (partner 1 µM)
How it was run: as §1

Cell Line | relative viability ([1]; first compound 0.02 µM) | relative viability ([1]; first compound 0.06325 µM) | relative viability ([1]; first compound 0.6325 µM) | relative viability ([1]; first compound 2 µM) | relative viability (Trametinib + Pictilisib; first compound 0.0025 µM) | relative viability (Trametinib + Pictilisib; first compound 0.007906 µM) | relative viability (Trametinib + Pictilisib; first compound 0.025 µM) | relative viability (Trametinib + Pictilisib; first compound 0.07906 µM) | relative viability (Trametinib + Pictilisib; first compound 0.25 µM) | relative viability (Trametinib + Olaparib; first compound 0.0025 µM) | relative viability (Trametinib + Olaparib; first compound 0.007906 µM) | relative viability (Trametinib + Olaparib; first compound 0.025 µM) | relative viability (Trametinib + Olaparib; first compound 0.07906 µM) | relative viability (Trametinib + Olaparib; first compound 0.25 µM) | relative viability ([2]; first compound 0.02 µM) | relative viability ([2]; first compound 0.06325 µM) | relative viability ([2]; first compound 0.2 µM) | relative viability ([2]; first compound 0.6325 µM) | relative viability ([2]; first compound 2 µM) | relative viability ([1]; first compound 0.2 µM)
NCI-H3122 | 0.37 | 0.343 | 0.398 | 0.49 | 0.287 | 0.24 | 0.197 | 0.189 | 0.175 | 0.558 | 0.532 | 0.43 | 0.263 | 0.237 | 0.597 | 0.541 | 0.5 | 0.563 | 0.632 | –
NCI-H2170 | 0.549 | 0.721 | 0.79 | 0.72 | 0.281 | 0.276 | – | 0.238 | 0.249 | 0.654 | 0.609 | – | 0.548 | 0.52 | – | 0.312 | 0.235 | 0.317 | 0.242 | 0.737
NCI-H1793 | 0.306 | 0.37 | 0.258 | 0.197 | 0.4 | 0.314 | 0.169 | 0.307 | 0.232 | 0.529 | 0.461 | 0.361 | 0.29 | 0.211 | 0.258 | 0.314 | 0.257 | 0.282 | 0.304 | 0.296
BEN | 0.475 | 0.445 | 0.634 | 0.761 | 0.487 | 0.472 | – | 0.419 | 0.426 | 1.15 | 1.04 | 0.995 | 1.01 | 1.02 | 0.541 | 0.596 | 0.504 | 0.478 | 0.532 | 0.443
NCI-H647 | 0.327 | 0.345 | 0.321 | 0.215 | 0.348 | 0.301 | 0.235 | 0.206 | 0.127 | 0.481 | 0.362 | 0.491 | 0.452 | 0.218 | 0.379 | 0.292 | – | 0.324 | 0.312 | 0.206
PC-14 | 0.564 | 0.525 | 0.553 | 0.541 | 0.667 | 0.546 | 0.24 | 0.141 | 0.107 | 0.282 | 0.225 | 0.216 | 0.222 | 0.106 | 0.573 | 0.662 | 0.881 | 0.635 | 0.691 | 0.585
HCC-78 | 0.386 | 0.424 | 0.271 | 0.426 | 0.205 | 0.154 | 0.185 | 0.152 | 0.212 | 0.774 | 0.642 | 0.82 | 0.808 | 0.557 | 0.199 | 0.183 | 0.206 | 0.178 | 0.171 | –
NCI-H1666 | 0.596 | 0.546 | 0.609 | 0.603 | 0.267 | 0.371 | 0.276 | 0.255 | 0.244 | 0.735 | 0.699 | 0.706 | 0.755 | 0.726 | 0.552 | 0.322 | 0.318 | 0.272 | 0.26 | 0.61
COR-L 105 | 0.311 | 0.311 | 0.364 | 0.36 | 0.311 | 0.343 | 0.303 | 0.31 | 0.315 | 0.738 | 0.76 | 0.498 | 0.466 | 0.417 | 0.412 | 0.383 | 0.385 | 0.364 | 0.364 | 0.378
LU99A | 0.252 | 0.264 | 0.257 | 0.256 | 0.279 | 0.318 | 0.217 | 0.197 | 0.197 | 0.292 | 0.277 | 0.261 | 0.263 | 0.247 | 0.344 | 0.282 | 0.338 | 0.316 | 0.315 | 0.278
NCI-H596 | 0.981 | 0.878 | 0.7 | 0.918 | 0.367 | 0.316 | 0.338 | 0.314 | 0.33 | 0.664 | 0.594 | 0.589 | 0.516 | 0.463 | 0.333 | 0.322 | 0.421 | 0.392 | 0.396 | 0.745
201T | 1 | 0.96 | 0.897 | 0.781 | 0.653 | 0.625 | 0.542 | 0.71 | 0.615 | 0.841 | 0.782 | 0.747 | 0.678 | 0.642 | 0.64 | 0.649 | 0.629 | 0.626 | 0.613 | 0.947
HCC-15 | 0.322 | 0.406 | 0.346 | 0.531 | 0.596 | 0.232 | 0.175 | 0.158 | 0.182 | 0.766 | 0.39 | 0.447 | 0.369 | 0.3 | 0.717 | 0.639 | 0.775 | 0.666 | 0.771 | 0.493
